Source: PubChem BioAssay (NCI)
Where “and” joins values, the source holds several entries; their conditions need not be identical. Equal entries are not always repeated.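 In this assay, cells in 96-well plates receive the compound at five concentrations for 48 hours. Endpoints are linearly interpolated between the surrounding concentrations. GI50 = concentration required for 50% inhibition of growth. Definition used: TGI = concentration required for complete inhibition of growth.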

Experiments:
Test in all cases: NCI-60 cell line screen, 48 h
MCF7 breast = system: MCF7 breast
M19-MEL melanoma = system: M19-MEL melanoma
BT-549 breast = system: BT-549 breast
RPMI-8226 leukemia = system: RPMI-8226 leukemia
CAKI-1 renal = system: CAKI-1 renal
LXFL 529 NSCLC = system: LXFL 529 NSCLC
UACC-257 melanoma = system: UACC-257 melanoma
LOX IMVI melanoma = system: LOX IMVI melanoma
MOLT-4 leukemia = system: MOLT-4 leukemia

| SMILES | TGI (MCF7 breast) | TGI (M19-MEL melanoma) | TGI (BT-549 breast) | TGI (RPMI-8226 leukemia) | TGI (CAKI-1 renal) | TGI (LXFL 529 NSCLC) | TGI (UACC-257 melanoma) | TGI (LOX IMVI melanoma) | TGI (MOLT-4 leukemia) | GI50 (M19-MEL melanoma) | GI50 (RPMI-8226 leukemia) | GI50 (LXFL 529 NSCLC) | GI50 (UACC-257 melanoma) | GI50 (LOX IMVI melanoma) | GI50 (MOLT-4 leukemia) |
| --- | --- | --- | --- | --- | --- | --- | --- | --- | --- | --- | --- | --- | --- | --- | --- |
| CC1=C(/C=C/C(C)=C/C=C/C(C)=C/C(=O)O)C(C)(C)CCC1 | > 77.9 µM | > 100 µM | 63 µM | 57.7 µM | > 93.2 µM | > 100 µM | 99.7 µM | 52.6 µM | 69.1 µM | – | – | – | – | – | – |
| NC1=NN(c2ccccc2)C(=O)C1C(=O)C(=O)Nc1nccs1 (configuration not stated) | – | > 100 µM | – | > 100 µM | > 100 µM | > 100 µM | > 100 µM | > 100 µM | > 100 µM | – | – | – | – | – | – |
| CSc1snc2sc3c(Cl)nnnc3c12 | – | 24.1 µM | – | 56.2 µM | 15.9 µM | 4.85 µM | 26.8 µM | 11.2 µM | 11.4 µM | – | – | – | – | – | – |
| COC(=O)C12OCC34C(CC5C(C)C6=CC(=O)OC6=CC5(C)C3C(O)C1O)OC(=O)C(O)C24 (configuration not stated) | – | 0.723 µM and 2.2 µM | – | 0.116 µM and 0.25 µM | 30 µM | 0.737 µM and 1.36 µM | 8.5 µM | 0.288 µM and 1.42 µM | 0.375 µM and 1.27 µM | 133 nM | 33.3 nM | 37.9 nM | 339 nM | 54.2 nM | 31.4 nM |
| Nc1n[n+](-c2ccccc2)no1 | – | > 100 µM | – | > 100 µM | > 100 µM | > 100 µM | > 100 µM | > 100 µM | > 100 µM | – | – | – | – | – | – |
| COc1ccc(/C=C2\CCC(CCN(C)C)(C3=CCCC3)C2=O)cc1Br (configuration not stated) | – | 7.86 µM | – | 5.5 µM | 21.2 µM | 15.8 µM | 5.5 µM | 15.4 µM | 6.01 µM | – | – | – | – | – | – |
| CCCCCCCCCC(=O)OCC1OC(n2cc(F)c(=O)[nH]c2=O)C(NC(=O)OCc2ccccc2)C(OC(=O)CCCCCCCCC)C1O (configuration not stated) | – | > 100 µM | – | 65.2 µM | > 100 µM | > 100 µM | > 100 µM | 30.2 µM | > 100 µM | – | – | – | – | – | – |
| Cc1cccc(C(C)(C)C)c1NC(=O)CCc1nc(=S)[nH][nH]1 | – | > 100 µM | – | > 100 µM | > 100 µM | > 100 µM | > 100 µM | > 100 µM | > 100 µM | – | – | – | – | – | – |
| CCOC(=O)C(CC/C=C\c1ccccc1)N1CCC[C@H]1C(=O)OC (some centres not stated) | – | > 100 µM | – | > 100 µM | > 100 µM | > 100 µM | > 100 µM | > 100 µM | > 100 µM | – | – | – | – | – | – |
| CCOC(=O)c1cnc2sc3ccc4ccccc4c3n2c1=O | – | > 100 µM | – | > 100 µM | 99.4 µM | > 100 µM | > 100 µM | > 100 µM | > 100 µM | – | – | – | – | – | – |
| O=C(O/N=C1/CCC/C1=C\c1ccccc1)c1ccc(Cl)c(Cl)c1 | – | > 100 µM | – | > 100 µM | > 100 µM | > 100 µM | > 100 µM | > 100 µM | > 100 µM | – | – | – | – | – | – |
| CCOC(=O)c1cnc2c(ccc3ncccc32)c1NCCCN(CC)CC | – | > 100 µM | – | > 100 µM | > 100 µM | > 100 µM | > 100 µM | 33.6 µM | 72.2 µM | – | – | – | – | – | – |
